Data from PubChem BioAssay AID1745844 (Carcinogenic Potency Database (CPDB), 2022).

Test system: rodent lifetime carcinogenesis bioassay, tumor incidence TD50
Test: chronic cancer bioassays in animals – CPDB, compiled studies (AID 1745844)

O=CNc1nc(-c2ccc([N+](=O)[O-])o2)cs1
TD50 (hamster, strain Syrian Golden, males, in feed, site: forestomach, lesion: squamous-cell papilloma, dosed 48 weeks, study length 70 weeks): 83.8 mg/kg/day
carcinogen call (hamster, strain Syrian Golden, males, in feed, site: urinary bladder, lesion: several types, types named in the paper, dosed 48 weeks, study length 70 weeks): positive
TD50 (hamster, strain Syrian Golden, males, in feed, site: urinary bladder, lesion: squamous-cell carcinoma, dosed 48 weeks, study length 70 weeks): 54 mg/kg/day
TD50 (mouse, strain Charles River CD1, females, in feed, site: any site (literature study), lesion: several types, types named in the paper, dosed 36 weeks, study length 68 weeks): 18.7 mg/kg/day
TD50 (mouse, strain Charles River CD1, females, in feed, site: lung, lesion: adenoma, dosed 36 weeks, study length 68 weeks): 1120 mg/kg/day
TD50 (mouse, strain Charles River CD1, females, in feed, site: urinary bladder, lesion: spindle-cell tumor, dosed 36 weeks, study length 68 weeks): 128 mg/kg/day
TD50 (mouse, strain Charles River CD1, females, in feed, site: urinary bladder, lesion: squamous-cell carcinoma, dosed 36 weeks, study length 68 weeks): 128 mg/kg/day
TD50 (mouse, strain Charles River CD1, females, in feed, site: urinary bladder, lesion: transitional-cell carcinoma, dosed 36 weeks, study length 68 weeks): 33.3 mg/kg/day
TD50 (mouse, strain Charles River CD1, males, in feed, site: any site (literature study), lesion: several types, types named in the paper, dosed 40 weeks, study length 77 weeks): 21.5 mg/kg/day
TD50 (mouse, strain Charles River CD1, males, in feed, site: urinary bladder, lesion: spindle-cell tumor, dosed 40 weeks, study length 77 weeks): 97.1 mg/kg/day
TD50 (mouse, strain Charles River CD1, males, in feed, site: urinary bladder, lesion: squamous-cell carcinoma, dosed 40 weeks, study length 77 weeks): 250 mg/kg/day
TD50 (mouse, strain Charles River CD1, males, in feed, site: urinary bladder, lesion: transitional-cell carcinoma, dosed 40 weeks, study length 77 weeks): 30.5 mg/kg/day
TD50 (mouse, strain NMRI, females, by gavage, site: any site (literature study), lesion: benign tumor, dosed 68 weeks, study length 75 weeks): 69.4 mg/kg/day
TD50 (mouse, strain NMRI, females, by gavage, site: any site (literature study), lesion: malignant tumor, dosed 68 weeks, study length 75 weeks): 59.5 mg/kg/day
TD50 (mouse, strain NMRI, females, by gavage, site: forestomach, lesion: papilloma, dosed 68 weeks, study length 75 weeks): 164 mg/kg/day
TD50 (mouse, strain NMRI, females, by gavage, site: forestomach, lesion: squamous-cell carcinoma, dosed 68 weeks, study length 75 weeks): 139 mg/kg/day
TD50 (mouse, strain NMRI, females, by gavage, site: liver, lesion: malignant tumor, dosed 68 weeks, study length 75 weeks): 2390 mg/kg/day
TD50 (mouse, strain NMRI, females, by gavage, site: stomach, glandular, lesion: malignant tumor, dosed 68 weeks, study length 75 weeks): 944 mg/kg/day
TD50 (mouse, strain Swiss, females, in feed, site: all sites, lesion: leukemia, dosed 33 weeks, study length 52 weeks): 47.6 mg/kg/day
TD50 (mouse, strain Swiss, females, in feed, site: all sites, lesion: leukemia, dosed 46 weeks, study length 53 weeks): 55.4 mg/kg/day
TD50 (mouse, strain Swiss, females, in feed, site: all sites, lesion: lymphocytic leukemia, dosed 46 weeks, study length 66 weeks): 78.3 mg/kg/day
TD50 (mouse, strain Swiss, females, in feed, site: forestomach, lesion: squamous-cell papilloma, dosed 46 weeks, study length 66 weeks): 235 mg/kg/day
TD50 (mouse, strain Swiss, females, in feed, site: lung, lesion: alveolar-cell adenoma, dosed 33 weeks, study length 52 weeks): 208 mg/kg/day
TD50 (mouse, strain Swiss, females, in feed, site: lung, lesion: alveolar-cell carcinoma, dosed 46 weeks, study length 66 weeks): 86.4 mg/kg/day
TD50 (mouse, strain Swiss, females, in feed, site: lung, lesion: carcinoma, dosed 46 weeks, study length 53 weeks): 163 mg/kg/day
TD50 (mouse, strain Swiss, females, in feed, site: urinary bladder, lesion: carcinoma, dosed 33 weeks, study length 52 weeks): 19.8 mg/kg/day
TD50 (mouse, strain Swiss, females, in feed, site: urinary bladder, lesion: one or several types, types not named, dosed 46 weeks, study length 53 weeks): 18.2 mg/kg/day
TD50 (mouse, strain Swiss, females, in feed, site: urinary bladder, lesion: transitional-cell carcinoma, dosed 46 weeks, study length 66 weeks): 7.72 mg/kg/day
TD50 (rat, strain Fischer 344, males, in feed, site: urinary bladder, lesion: carcinoma, dosed 30 weeks, study length 104 weeks): 3.18 mg/kg/day
TD50 (rat, strain Fischer 344, males, in feed, site: urinary bladder, lesion: papillary carcinoma, dosed 30 weeks, study length 52 weeks): 5.92 mg/kg/day
TD50 (rat, strain Fischer 344, males, in feed, site: urinary bladder, lesion: several types, types named in the paper, dosed 30 weeks, study length 52 weeks): 1.31 mg/kg/day
TD50 (rat, strain Fischer, males, in feed, site: liver, lesion: hyperplastic nodule, dosed 36 weeks, study length 74 weeks): 263 mg/kg/day
TD50 (rat, strain Fischer, males, in feed, site: urinary bladder, lesion: carcinoma, invasive, dosed 36 weeks, study length 74 weeks): 9.74 mg/kg/day
TD50 (rat, strain Fischer, males, in feed, site: urinary bladder, lesion: carcinoma, invasive, dosed 77 weeks, study length 77 weeks): 18.1 mg/kg/day
TD50 (rat, strain Fischer, males, in feed, site: urinary bladder, lesion: carcinoma, noninvasive, dosed 36 weeks, study length 74 weeks): 60.5 mg/kg/day
TD50 (rat, strain Fischer, males, in feed, site: urinary bladder, lesion: carcinoma, noninvasive, dosed 77 weeks, study length 77 weeks): 195 mg/kg/day
TD50 (rat, strain Fischer, males, in feed, site: urinary bladder, lesion: carcinoma, dosed 36 weeks, study length 74 weeks): 4.51 mg/kg/day
carcinogen call (rat, strain Fischer, males, in feed, site: urinary bladder, lesion: carcinoma, dosed 72 weeks, study length 72 weeks): positive
TD50 (rat, strain Fischer, males, in feed, site: urinary bladder, lesion: carcinoma, dosed 77 weeks, study length 77 weeks): 9.87 mg/kg/day
TD50 (rat, strain Sprague-Dawley, females, in feed, site: urinary bladder, lesion: papillary carcinoma, dosed 26 weeks, study length 70 weeks): 48.6 mg/kg/day
TD50 (rat, strain Sprague-Dawley, females, in feed, site: urinary bladder, lesion: papillary carcinoma, dosed 46 weeks, study length 70 weeks): 82.7 mg/kg/day
carcinogen call (rat, strain Sprague-Dawley, females, in feed, site: urinary bladder, lesion: several types, types named in the paper, dosed 26 weeks, study length 70 weeks): positive
TD50 (rat, strain Sprague-Dawley, females, in feed, site: urinary bladder, lesion: several types, types named in the paper, dosed 46 weeks, study length 63 weeks): 5.07 mg/kg/day
carcinogen call (rat, strain Sprague-Dawley, females, in feed, site: urinary bladder, lesion: several types, types named in the paper, dosed 46 weeks, study length 70 weeks): positive
carcinogen call (rat, strain Sprague-Dawley, females, in feed, site: urinary bladder, lesion: transitional-cell carcinoma, dosed 26 weeks, study length 70 weeks): positive
carcinogen call (rat, strain Sprague-Dawley, females, in feed, site: urinary bladder, lesion: transitional-cell carcinoma, dosed 46 weeks, study length 70 weeks): positive
carcinogen call (rat, strain Sprague-Dawley, males, in feed, site: urinary bladder, lesion: transitional-cell carcinoma, dosed 26 weeks, study length 52 weeks): positive
carcinogen call (rat, strain Sprague-Dawley, males, in feed, site: urinary bladder, lesion: transitional-cell carcinoma, dosed 46 weeks, study length 52 weeks): positive
carcinogen call (rat, strain Wistar, females, in feed, site: urinary bladder, lesion: transitional-cell carcinoma, dosed 34 weeks, study length 52 weeks): positive

O=C(O)C=Cc1ccc(O)c(O)c1
TD50 (mouse, strain B6C3F1, females, in feed, site: any site (literature study), lesion: one or several types, types not named, dosed 96 weeks, study length 96 weeks): 1900 mg/kg/day
TD50 (mouse, strain B6C3F1, females, in feed, site: forestomach, lesion: squamous-cell carcinoma, dosed 96 weeks, study length 96 weeks): 43300 mg/kg/day
TD50 (mouse, strain B6C3F1, females, in feed, site: kidney, lesion: tubular-cell adenoma, dosed 96 weeks, study length 96 weeks): 4700 mg/kg/day
TD50 (mouse, strain B6C3F1, males, in feed, site: any site (literature study), lesion: one or several types, types not named, dosed 96 weeks, study length 96 weeks): 3210 mg/kg/day
TD50 (mouse, strain B6C3F1, males, in feed, site: forestomach, lesion: papilloma, dosed 96 weeks, study length 96 weeks): 9790 mg/kg/day
TD50 (mouse, strain B6C3F1, males, in feed, site: forestomach, lesion: several types, types named in the paper, dosed 96 weeks, study length 96 weeks): 5270 mg/kg/day
TD50 (mouse, strain B6C3F1, males, in feed, site: forestomach, lesion: squamous-cell carcinoma, dosed 96 weeks, study length 96 weeks): 13300 mg/kg/day
TD50 (mouse, strain B6C3F1, males, in feed, site: lung, lesion: alveolar-cell adenoma, dosed 96 weeks, study length 96 weeks): 6110 mg/kg/day
TD50 (mouse, strain B6C3F1, males, in feed, site: lung, lesion: alveolar-cell carcinoma, dosed 96 weeks, study length 96 weeks): 41300 mg/kg/day
TD50 (mouse, strain B6C3F1, males, in feed, site: lung, lesion: several types, types named in the paper, dosed 96 weeks, study length 96 weeks): 5120 mg/kg/day
TD50 (rat, strain F344/DuCrj, females, in feed, site: any site (literature study), lesion: one or several types, types not named, dosed 104 weeks, study length 104 weeks): 312 mg/kg/day
TD50 (rat, strain F344/DuCrj, females, in feed, site: forestomach, lesion: papilloma, dosed 104 weeks, study length 104 weeks): 426 mg/kg/day
TD50 (rat, strain F344/DuCrj, females, in feed, site: forestomach, lesion: several types, types named in the paper, dosed 104 weeks, study length 104 weeks): 298 mg/kg/day
TD50 (rat, strain F344/DuCrj, females, in feed, site: forestomach, lesion: squamous-cell carcinoma, dosed 104 weeks, study length 104 weeks): 989 mg/kg/day
TD50 (rat, strain F344/DuCrj, males, in feed, site: forestomach, lesion: papilloma, dosed 104 weeks, study length 104 weeks): 377 mg/kg/day
TD50 (rat, strain F344/DuCrj, males, in feed, site: forestomach, lesion: several types, types named in the paper, dosed 104 weeks, study length 104 weeks): 272 mg/kg/day
TD50 (rat, strain F344/DuCrj, males, in feed, site: forestomach, lesion: squamous-cell carcinoma, dosed 104 weeks, study length 104 weeks): 656 mg/kg/day
TD50 (rat, strain F344/DuCrj, males, in feed, site: forestomach, lesion: squamous-cell papilloma, dosed 51 weeks, study length 52 weeks): 217 mg/kg/day
TD50 (rat, strain F344/DuCrj, males, in feed, site: forestomach, lesion: squamous-cell papilloma, dosed 60 weeks, study length 60 weeks): 542 mg/kg/day
TD50 (rat, strain F344/DuCrj, males, in feed, site: kidney, lesion: tubular-cell adenoma, dosed 104 weeks, study length 104 weeks): 3830 mg/kg/day
